Laboratory results as given in patent publication US8263664B2, “pH-sensitive polymeric micelles for drug delivery” (priority 2002, dated 2012).

Tests used:
[1] = test system: human breast MCF-7/DOX^R carcinoma xenografts; assay: Growth inhibition of human breast carcinoma (MCF-7/DOX^R) xenografts; type: in vivo; settings: 10 mg/kg DOX equivalent i.v. days 0, 3 and 6
Method: Tumor volume was calculated using a formula, tumor volume=0.52×length×width×height. Dimensions were measured with an electronic digital caliper. Two to three weeks after inoculation (tumor volume 150-200 mm^3) in vivo antitumor studies were performed. Saline (control), free DOX, or DOX-loaded micelles in aqueous saline solution were injected intravenously through a tail vein by 1-3 bolus injections at three day intervals. The injection volume (approximately 0.1 mL/10 g body weight) of micelle preparation was adjusted to give 10 mg DOX/kg body weight. Five to eight mice per study were used. Tumor volume and body weight were monitored with elapsed time. A mean standard error was calculated for each experimental point.
For the preparation of doxorubicin-loaded micelles, doxorubicin.HCl (DOX.HCl, Sigma Chemical Co., St. Louis, Mo.) was desalted by stirring overnight in the presence of two molar equivalents of triethylamine (Sigma Chemical Co.) in DMSO (Sigma Chemical Co.). […] The amount of entrapped DOX was determined by measuring UV absorbance at 481 nm of the drug after dissolving micelles in DMSO. […]

A2780/DOX^R tumor = test system: A2780/DOX^R tumor; design: species or system nude mice; settings: mouse, in vivo, iv
Method: To directly explore the extent of drug extravasation from the blood vessels and accumulation of DOX in the tumor, the time-dependent fluorescence intensity of DOX in the tumor sight was measured using a non-invasive skin fold window chamber model, which allows real-time measurements. To investigate the in situ delivery of polymeric micelles to solid tumors, a non-invasive visualization method using a “dorsal skin-fold window chamber model” was used. M. R. Dreher et al., Tumor vascular permeability, accumulation, and penetration of macromolecular drug carriers, 98 J. Nat'l Cancer Inst. 335-344 (2006). To establish the window chamber model, S. Shan et al., A novel rodent mammary window of orthotic breast cancer for intravital microscopy, 65 Microvasc. Res. 109-117 (2003), a flap of skin measuring 1 cm in diameter was dissected away from opposing surfaces of the dorsal skin flap of an anesthetized mouse, leaving a facial plane with its associated vasculature. The flaps were held vertically away from the body with a titanium saddle, which was sutured to both sides of the flap. […] DOX was incorporated into the polymeric micellar core, and DOX fluorescence imaging was captured in the skin dorsal window. […] Observation was made using intravital fluorescence microscopy (Olympus BX51WI Microscope, Leeds Precision Instruments, Inc., Minnesota) over time.

MCF-7/DOX^R cells = assay: MTT cytotoxicity against DOX-resistant MCF-7/DOX^R cells; settings: 48 hrs incubation, pH 8.0-6.8
Method: DOX-resistant MCF-7 cells (MCF-7/DOX^R) were selected from MCF-7 cells (Korean Cell Line Bank (KCLB)) that were stepwise exposed at 0.001-10 mg/mL of free DOX. Here, cells were maintained in RPMI-1640 (Gibco, Uxbridge, UK) medium with 2 mM L-glutamine, 5% penicillin-streptomycin, and 10% fetal bovine serum in a humidified incubator 37° C. and 5% CO2 atmosphere.
For the cytotoxicity test of free DOX or drug-loaded polymeric micelles against sensitive MCF-7 or MCF-7/DOX^R cells, cells (5×10^4 cells/mL) growing as a monolayer, were seeded at 96-well dish in 200 mL of RPMI 1640 medium before 24 hrs. Free DOX or DOX loaded micelles in RPMI 1640 medium with pH 7.4 or 6.8 were prepared immediately before use as described above, added to medium-removed 96-well dish with different DOX concentration, and incubated for 48 hrs. Chemosensitivity was assessed using the tetrazolium salt MTT (Sigma Chemical Co.). Then, 100 mL of PBS pH 7.4 containing 20 mL of MTT (500 mg/L) solution was added to each well. The plates were incubated for an additional 4 hrs, and then 100 mL of DMSO was added to each well. The absorbance of each well was read on a microplate reader using a test wavelength of 570 nm and a reference wavelength 630 nm.

## COc1cccc2c1C(=O)c1c(O)c3c(c(O)c1C2=O)C[C@@](O)(C(=O)CO)C[C@@H]3O[C@H]1C[C@H](N)[C@H](O)[C@H](C)O1 [free DOX, doxorubicin]
[1]
  body weight change: more weight loss
A2780/DOX^R tumor
  course of DOX fluorescence intensity in the tumor: declined after 20 min and became dark at 60 min
  time at which DOX fluorescence intensity in tumor started to appear: ≤ 7 min
MCF-7/DOX^R cells
  cytotoxicity against MCF-7/DOX^R cells: little reduced
